One assay concerns the target T1, Rat mGlu2 (Rattus norvegicus, UniProt P31421).
T1 construct: expressed in transfected cells; host or cells: HEK-293 co-expressing GIRK channels
In words: mGlu receptor in vitro assay, thallium flux through GIRK channels, rat mGlu2. It is filed as cell-based. To be noted: PAM potency with EC20 glutamate. The procedure: (§1) Human Embryonic Kidney (HEK-293) cell lines co-expressing rat mGlu receptors 2, 3, 4, 6, 7 or 8 and G protein-coupled inwardly-rectifying potassium (GIRK) channels were grown in Growth Media containing 45% DMEM, 45% F-12, 10% FBS, 20 mM HEPES, 2 mM L-glutamine, antibiotic/antimycotic, non-essential amino acids, 700 μg/mL G418, and 0.6 μg/ml puromycin at 37° C. in the presence of 5% CO2. […] All cell culture reagents were purchased from Invitrogen Corp. (Carlsbad, CA) unless otherwise noted. Calcium assays were used to assess activity of compounds at mGlu1 and mGlu5, as previously described in Engers et al (J. Med. Chem. 2009, 52, 4115-4118). Calcium assays at mGlu3 were performed as described for mGlu5 with the exception that TREx293 mGlu3 Gα15 cells were treated with tetracycline at 20 ng/mL for 20 h prior to assay.
(§2) Compound activity at the group II (mGlu2 and mGlu3) and group III (mGlu4, mGlu6, mGlu7, and mGlu8) was assessed using thallium flux through GIRK channels, a method that has been described in detail. Briefly, cells were plated into 384-well, black-walled, clear-bottomed poly-D-lysine-coated plates at a density of 15,000 cells/20 μL/well in DMEM containing 10% dialyzed FBS, 20 mM HEPES, and 100 units/mL penicillin/streptomycin (assay media). Plated cells were incubated overnight at 37° C. in the presence of 5% CO2. The following day, the medium was exchanged from the cells to assay buffer [Hanks' balanced salt solution (Invitrogen) containing 20 mM HEPES, pH 7.3] using an ELX405 microplate washer (BioTek), leaving 20 μL/well, followed by the addition of 20 μL/well FluoZin2-AM (330 nM final concentration) indicator dye (Invitrogen; prepared as a stock in DMSO and mixed in a 1:1 ratio with Pluronic acid F-127) in assay buffer. Cells were incubated for 1 h at room temperature, and the dye exchanged to assay buffer using an ELX405, leaving 20 μL/well. Test compounds were diluted to 2 times their final desired concentration in assay buffer (0.3% DMSO final concentration). Agonists were diluted in thallium buffer [125 mM sodium bicarbonate (added fresh the morning of the experiment), 1 mM magnesium sulfate, 1.8 mM calcium sulfate, 5 mM glucose, 12 mM thallium sulfate, and 10 mM HEPES, pH 7.3] at 5 times the final concentration to be assayed. Cell plates and compound plates were loaded onto a kinetic imaging plate reader (FDSS 6000 or 7000; Hamamatsu Corporation, Bridgewater, NJ). Appropriate baseline readings were taken (10 images at 1 Hz; excitation, 470±20 nm; emission, 540±30 nm) and test compounds were added in a 20 μL volume and incubated for approximately 2.5 min before the addition of 10 μL of thallium buffer with or without agonist. After the addition of agonist, data were collected for approximately an additional 2.5 min. Data were analyzed using Excel (Microsoft Corp, Redmond, WA). The slope of the fluorescence increase beginning 5 s after thallium/agonist addition and ending 15 s after thallium/agonist addition was calculated, corrected to vehicle and maximal agonist control slope values, and plotted in using either XLfit (ID Business Solutions Ltd) or Prism software (GraphPad Software, San Diego, CA) to generate concentration-response curves. Potencies were calculated from fits using a four-point parameter logistic equation. For concentration-response curve experiments, compounds were serially diluted 1:3 into 10-point concentration response curves and were transferred to daughter plates using an Echo acoustic plate reformatter (Labcyte, Sunnyvale, CA). Test compounds were applied and followed by EC20 concentrations of glutamate.

The target of the next assay is T2, Rat mGlu3 (Rattus norvegicus, UniProt P31422).
T2 construct: expressed in transfected cells; host or cells: HEK-293 co-expressing GIRK channels
Nature of the assay: mGlu receptor in vitro assay (thallium flux through GIRK channels / calcium assay), rat mGlu3. Particulars: PAM potency with EC20 glutamate. In kind it is cell-based. The procedure: as §1, §2

T2 sequence (P31422 23-879): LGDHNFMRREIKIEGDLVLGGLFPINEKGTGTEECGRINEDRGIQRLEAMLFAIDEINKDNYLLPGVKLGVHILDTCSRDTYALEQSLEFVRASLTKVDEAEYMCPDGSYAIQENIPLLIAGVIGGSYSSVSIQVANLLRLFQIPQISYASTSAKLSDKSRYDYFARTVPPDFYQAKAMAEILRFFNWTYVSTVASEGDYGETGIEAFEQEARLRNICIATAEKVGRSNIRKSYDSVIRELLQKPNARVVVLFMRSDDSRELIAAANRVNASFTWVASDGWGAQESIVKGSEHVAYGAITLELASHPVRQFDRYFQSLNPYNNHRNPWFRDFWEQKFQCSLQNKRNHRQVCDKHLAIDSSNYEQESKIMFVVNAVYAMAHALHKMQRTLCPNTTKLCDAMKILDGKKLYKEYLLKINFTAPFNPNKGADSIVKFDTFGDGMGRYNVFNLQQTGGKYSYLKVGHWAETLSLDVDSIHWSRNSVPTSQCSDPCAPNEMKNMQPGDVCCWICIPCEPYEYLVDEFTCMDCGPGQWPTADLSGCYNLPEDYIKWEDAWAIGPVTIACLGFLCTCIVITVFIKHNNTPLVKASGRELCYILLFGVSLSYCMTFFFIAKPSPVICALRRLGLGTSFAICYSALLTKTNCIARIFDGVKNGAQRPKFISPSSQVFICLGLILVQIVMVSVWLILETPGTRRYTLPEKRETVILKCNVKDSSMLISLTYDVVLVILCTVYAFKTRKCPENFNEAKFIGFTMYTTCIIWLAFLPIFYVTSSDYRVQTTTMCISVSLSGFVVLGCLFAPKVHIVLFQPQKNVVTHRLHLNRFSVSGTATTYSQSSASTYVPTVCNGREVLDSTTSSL
T1 sequence (P31421 19-872): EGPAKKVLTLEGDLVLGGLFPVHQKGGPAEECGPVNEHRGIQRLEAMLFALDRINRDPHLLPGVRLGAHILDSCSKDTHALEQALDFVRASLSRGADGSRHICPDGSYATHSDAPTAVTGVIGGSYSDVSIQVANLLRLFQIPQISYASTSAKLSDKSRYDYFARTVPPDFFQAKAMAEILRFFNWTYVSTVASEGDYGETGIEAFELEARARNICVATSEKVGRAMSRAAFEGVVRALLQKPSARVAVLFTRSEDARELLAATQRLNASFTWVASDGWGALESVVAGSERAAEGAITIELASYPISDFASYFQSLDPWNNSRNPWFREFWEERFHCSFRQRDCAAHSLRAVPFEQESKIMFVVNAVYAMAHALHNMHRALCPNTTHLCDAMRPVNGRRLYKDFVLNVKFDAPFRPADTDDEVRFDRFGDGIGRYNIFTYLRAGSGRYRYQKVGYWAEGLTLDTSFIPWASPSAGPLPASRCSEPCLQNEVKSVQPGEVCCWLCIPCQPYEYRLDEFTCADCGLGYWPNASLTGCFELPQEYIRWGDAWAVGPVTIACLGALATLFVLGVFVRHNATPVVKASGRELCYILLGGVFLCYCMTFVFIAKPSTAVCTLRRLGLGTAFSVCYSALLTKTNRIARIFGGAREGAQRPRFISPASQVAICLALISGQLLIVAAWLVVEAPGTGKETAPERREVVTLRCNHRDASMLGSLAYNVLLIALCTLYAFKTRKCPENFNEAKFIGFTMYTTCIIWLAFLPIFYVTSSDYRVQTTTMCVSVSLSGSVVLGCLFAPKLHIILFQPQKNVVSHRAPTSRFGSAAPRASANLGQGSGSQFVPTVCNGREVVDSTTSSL

Usually EC50 stands for the midpoint of the concentration-response curve. For the molecule `Cc1nc(-c2cccc(-c3cnc(COc4ccc(C(=O)CC(C)(C)C)c(O)c4C)cn3)c2)no1` [compound 86, 1-(2-Hydroxy-3-methyl-4-((5-(3-(5-methyl-1,2,4-oxadiazol-3-yl)phenyl)pyrazin-2-yl)methoxy)phenyl)-3,3-dimethylbutan-1-one], the EC50 on Rat mGlu2 is more than 30000 nM; on Rat mGlu3 it was more than 10000 nM.

For the molecule `CCCC(=O)c1ccc(OCc2cnc(-c3cccc(C(=O)O)c3)cn2)c(C)c1O` [compound 118, 3-(5-((4-Butyryl-3-hydroxy-2-methylphenoxy)methyl)pyrazin-2-yl)benzoic acid], the concentration for a half-maximal effect (EC50) at Rat mGlu2 came out at 482 nM; on Rat mGlu3, 1020 nM.

Consider `COc1c(C(=O)O)cccc1-c1cnc(COc2ccc(C(=O)CC(C)(C)C)c(O)c2C)cn1` [compound 136, 3-(5-((4-(3,3-Dimethylbutanoyl)-3-hydroxy-2-methylphenoxy)methyl)pyrazin-2-yl)-2-methoxybenzoic acid], for which the EC50 was found to be 129 nM at Rat mGlu2 and 53 nM on Rat mGlu3.

In the case of `CCCC(=O)c1ccc(OCC#CCOc2ccc(C(=O)O)cc2OC)c(C)c1O` [Example 34, 4-[4-(4-Butanoyl-3-hydroxy-2-methylphenoxy)but-2-ynyloxy]-3-methoxybenzoic acid], the figures for the EC50 on Rat mGlu2 and on Rat mGlu3 were 31 nM and 1900 nM, respectively.

For `CCCC(=O)c1ccc(OCC[S+]([O-])CCOc2ccc(C(=O)O)c(Cl)c2)c(C)c1O` (stereo not drawn) [Example 40, 4-(2-{[2-(4-Butanoyl-3-hydroxy-2-methylphenoxy)ethyl]sulfinyl}ethoxy)-2-chlorobenzoic acid], the figures for the EC50 at Rat mGlu2 and at Rat mGlu3 were 591 nM and more than 30000 nM, respectively.

Turning to `CCCC(=O)c1ccc(OCCCCCOc2ccc(F)c(C(=O)O)c2)c(C)c1O` [Example 48, 5-[5-(4-Butanoyl-3-hydroxy-2-methylphenoxy)pentyloxy]-2-fluorobenzoic acid], the half-maximal effective concentration (EC50) was 39 nM at Rat mGlu2 and more than 10000 nM on Rat mGlu3.

Consider `CCCC(=O)c1ccc(OC/C=C/COc2ccc(C(=O)O)cc2OC)c(C)c1O` [Example 6, (E)-4-((4-(4-Butyryl-3-hydroxy-2-methylphenoxy)but-2-en-1-yl)oxy)-3-methoxybenzoic acid], for which the EC50 came to 4 nM on Rat mGlu2 and 2590 nM at Rat mGlu3.

Take `Cc1c(OCc2cccc(-c3cccc(C(=O)O)c3)c2)ccc(C(=O)c2ccccc2)c1O` [compound 66, 3′-((4-Benzoyl-3-hydroxy-2-methylphenoxy)methyl)-[1,1′-biphenyl]-3-carboxylic acid]: the 50% effective concentration (EC50) on Rat mGlu2 was determined as 769 nM; at Rat mGlu3, 2280 nM.

As to `Cc1c(OCc2cnc(-c3cccc(C(=O)NC4CC4)c3)cn2)ccc(C(=O)CC(C)(C)C)c1O` [compound 113, N-Cyclopropyl-3-(5-((4-(3,3-dimethylbutanoyl)-3-hydroxy-2-methylphenoxy)methyl)pyrazin-2-yl)benzamide], the figures for the EC50 on Rat mGlu2 and at Rat mGlu3 were 1270 nM and 333 nM, respectively.

For `CCCC(=O)c1ccc(OCCCCCOc2ccc(C(=O)CCC)c(O)c2C)c(C)c1O` [compound 111, 1-{4-[5-(4-Butanoyl-3-hydroxy-2-methylphenoxy)pentyloxy]-2-hydroxy-3-methylphenyl}butan-1-one], the results for the EC50 on Rat mGlu2 and at Rat mGlu3 were more than 10000 nM and more than 30000 nM, respectively.

For the molecule `COc1ccc(C(=O)O)cc1OCCCCOc1ccc(C(=O)Cc2ccccc2)c(O)c1C` [compound 120, 3-(4-(3-Hydroxy-2-methyl-4-(2-phenylacetyl)phenoxy)butoxy)-4-methoxybenzoic acid], the EC50 was determined as 220 nM on Rat mGlu2 and 642 nM on Rat mGlu3.

On to `COc1ccc(C(=O)O)cc1OCC(C)CCOc1ccc(C(=O)CC(C)(C)C)c(O)c1C` (stereo not drawn) [Example 32, 3-{4-[4-(3,3-Dimethylbutanoyl)-3-hydroxy-2-methylphenoxy]-2-methylbutoxy}-4-methoxybenzoic acid], for which the half-maximal effective concentration (EC50) at Rat mGlu2 came to 127 nM; at Rat mGlu3, 200 nM.

`CCCC(=O)c1ccc(OCCCCCOc2cnc(C)c(C(=O)O)c2)c(C)c1O` [compound 108, 5-[5-(4-Butanoyl-3-hydroxy-2-methylphenoxy)pentyloxy]-2-methylpyridine-3-carboxylic acid]: the values for the concentration giving a half-maximal response (EC50) on Rat mGlu2 and at Rat mGlu3 were 110 nM and more than 30000 nM, respectively.

In the case of `CCCC(=O)c1ccc(OCC(=O)c2cccc(-c3cccc(C(=O)O)c3C)c2)c(C)c1O` [compound 99, 3-{3-[2-(4-Butanoyl-3-hydroxy-2-methylphenoxy)acetyl]phenyl}-2-methylbenzoic acid], the concentration giving a half-maximal response (EC50) at Rat mGlu2 was 167 nM; on Rat mGlu3, more than 30000 nM.

For the molecule `CCCC(=O)c1ccc(OCCCCCCOc2cccc(C(=O)O)c2C)c(C)c1O` [Example 55, 3-[6-(4-Butanoyl-3-hydroxy-2-methylphenoxy)hexyloxy]-2-methylbenzoic acid], the concentration for a half-maximal effect (EC50) on Rat mGlu2 came out at 182 nM; at Rat mGlu3, 1170 nM.

For `Cc1c(OCc2cnc(-c3cccc(-c4noc(=S)[nH]4)c3)cn2)ccc(C(=O)CC(C)(C)C)c1O` [compound 123, 1-(2-Hydroxy-3-methyl-4-((5-(3-(5-thioxo-4,5-dihydro-1,2,4-oxadiazol-3-yl)phenyl)pyrazin-2-yl)methoxy)phenyl)-3,3-dimethylbutan-1-one], the figures for the EC50 at Rat mGlu2 and at Rat mGlu3 were 2520 nM and 2640 nM, respectively.

`Cc1c(Oc2cccc(C(=O)O)c2)ccc(C(=O)CC(C)(C)C)c1O` [compound 97, 3-[4-(3,3-Dimethylbutanoyl)-3-hydroxy-2-methylphenoxy]benzoic acid]: the results for the 50% effective concentration (EC50) at Rat mGlu2 and on Rat mGlu3 were 1380 nM and more than 10000 nM, respectively.

In the case of `Cc1c(OCc2cnc(-c3cccc(C(=O)O)c3)cn2)ccc(C(=O)c2ccccc2)c1O` [compound 67, 3-(5-((4-Benzoyl-3-hydroxy-2-methylphenoxy)methyl)pyrazin-2-yl)benzoic acid], the EC50 at Rat mGlu2 amounted to 1800 nM; on Rat mGlu3 it was 625 nM.

Turning to `Cc1c(OCc2cnc(-c3ccc(C(=O)O)c(Cl)c3)cn2)ccc(C(=O)CC(C)(C)C)c1O` [compound 106, 4-(5-{[4-(3,3-Dimethylbutanoyl)-3-hydroxy-2-methylphenoxy]methyl}pyrazin-2-yl)-2-chlorobenzoic acid], the concentration for a half-maximal effect (EC50) on Rat mGlu2 was found to be 535 nM; at Rat mGlu3, 523 nM.

Consider `COc1ccc(C(=O)O)cc1OCCCOc1ccc(C(=O)CC(C)(C)C)c(O)c1C` [compound 92, 3-{3-[4-(3,3-Dimethylbutanoyl)-3-hydroxy-2-methylphenoxy]propoxy}-4-methoxybenzoic acid], for which the concentration for a half-maximal effect (EC50) amounted to 57 nM on Rat mGlu2 and 234 nM on Rat mGlu3.

As for `Cc1c(OCc2cccc(-c3cccc(NC(=O)NS(C)(=O)=O)c3)c2)ccc(C(=O)CC(C)(C)C)c1O` [compound 88, N-((3′-((4-(3,3-Dimethylbutanoyl)-3-hydroxy-2-methylphenoxy)methyl)-[1,1′-biphenyl]-3-yl)carbamoyl)methanesulfonamide], the EC50 at Rat mGlu2 was 1530 nM; on Rat mGlu3, more than 10000 nM.

Regarding `COc1ccc(C(=O)O)cc1OCCOc1ccc(C(=O)CC(C)(C)C)c(O)c1C` [compound 93, 3-{2-[4-(3,3-Dimethylbutanoyl)-3-hydroxy-2-methylphenoxy]ethoxy}-4-methoxybenzoic acid], the figures for the EC50 at Rat mGlu2 and on Rat mGlu3 were 207 nM and 1220 nM, respectively.

As for `Cc1c(SCc2cccc(-c3cccc(C(=O)O)c3)c2)ccc(C(=O)CC(C)(C)C)c1O` [Example 165, 3′-(((4-(3,3-Dimethylbutanoyl)-3-hydroxy-2-methylphenyl)thio)methyl)-[1,1′-biphenyl]-3-carboxylic acid], the concentration giving a half-maximal response (EC50) is 337 nM at Rat mGlu2 and 2530 nM at Rat mGlu3.

For the molecule `CCCC(=O)c1ccc(OCC#CCOc2ccc(C(=O)O)c(Cl)c2)c(C)c1O` [Example 43, 4-[4-(4-Butanoyl-3-hydroxy-2-methylphenoxy)but-2-ynyloxy]-2-chlorobenzoic acid], the half-maximal effective concentration (EC50) was 33 nM at Rat mGlu2 and more than 10000 nM on Rat mGlu3.

Source of the values: US20250179000A1 (Sanford Burnham Prebys Medical Discovery Institute, priority 2021, published 2025).
